We go through 2 compounds from publication PMC6385358, “Discovery of ((1,2,4-oxadiazol-5-yl)pyrrolidin-3-yl)ureidyl derivatives as selective non-steroidal agonists of the G-protein coupled bile acid receptor-1” (Scientific Reports, 2019).

The target of this assay is T1, FXR (Homo sapiens, UniProt Q96RI1).
T1 construct: host or cells: HepG2
T1 sequence (Q96RI1 1-486): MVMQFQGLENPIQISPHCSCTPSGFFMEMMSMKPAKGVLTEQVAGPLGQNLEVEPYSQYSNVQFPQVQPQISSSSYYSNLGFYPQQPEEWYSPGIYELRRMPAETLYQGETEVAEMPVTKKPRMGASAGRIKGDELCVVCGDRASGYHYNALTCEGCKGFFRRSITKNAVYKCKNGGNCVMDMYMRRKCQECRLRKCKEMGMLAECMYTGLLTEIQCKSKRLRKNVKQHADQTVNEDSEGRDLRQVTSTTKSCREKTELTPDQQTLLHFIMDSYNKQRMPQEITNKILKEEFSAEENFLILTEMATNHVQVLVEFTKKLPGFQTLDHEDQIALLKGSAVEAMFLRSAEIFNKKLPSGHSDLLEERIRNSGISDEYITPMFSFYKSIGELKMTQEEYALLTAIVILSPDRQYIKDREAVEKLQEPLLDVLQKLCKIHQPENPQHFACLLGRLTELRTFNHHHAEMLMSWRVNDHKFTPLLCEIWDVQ
Description: Luciferase reporter specificity assay versus FXR on HepG2 cells. It counts as cell-based. As to conditions: 10 μM. Here is the method:
The activity of compounds 1–14 on GPBAR1 was evaluated in a luciferase reporter assay using HEK-293T cells transfected with GPBAR1. The efficacy of tested compounds (Table 1) was measured using taurolithocholic acid (TLCA) as GPBAR1 reference compound[10],[11]. Each compound was tested at the concentration of 10 μM and transactivation activity of TLCA on a cAMP responsive element (CRE) (i.e. TGR5/GPBAR1) was considered equal to 100%. […] Thus, 9 and 10 (Table 1) turned out to be the most promising derivatives considering their low EC50 values and high activity efficacy. To further characterize the pharmacological properties of these compounds, we expanded their in vitro profile to common off-targets for bile acid receptor ligands.
Figure 3 (A) Dose response curves of compounds 9 and 10 (concentrations ranging from 1 to 50 µM) in luciferase reporter assay. (B) Real-time PCR analysis of mRNA expression of Pro-glucagon in GLUTag cells treated with compounds 9 and 10 at 10 μM, and TLCA used as a positive control (10 μM). Values are normalized to GAPDH and are expressed relative to those of not treated cells (NT) which are arbitrarily settled to 1. The relative mRNA expression is expressed as 2^(−ΔΔCt). […]
The specificity of compounds 9 and 10 versus PPARα, PPARγ, LXRα, LXRβ, FXR and PXR was determined in luciferase reporter gene assays as previously reported[29],[31].

As for `O=C(Nc1ccc(Cl)cc1)N[C@@H]1CN[C@H](c2nc(-c3ccccc3)no2)C1` [Compound 9], the FXR transactivation entry is listed as “unable to induce”.

Consider `O=C(NC1CCCCC1)N[C@@H]1CN[C@H](c2nc(-c3ccccc3)no2)C1` [Compound 10], for which the FXR transactivation result is recorded as “unable to induce”.
